Results published in patent US12583856B2, “Inhibitors of protein kinase A” (Blueprint Medicines Corporation, priority 2021, dated 2026).

Experiments:
PRKACA = biological target: T1, PRKACA (Homo sapiens, UniProt P17612); assay: PRKACA assay at Km (EZ Reader 2 electrophoretic mobility shift); format: biochemical; conditions: 5 μM ATP (Km), 1 μM Kemptide, 90 minutes at 25 C; read-out: Enz PRKACA IC50
T1 construct: purchased Millipore 539482
In short: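 PRKACA (0.18 nM) was incubated with 1 μM 5-FAM-Kemptide and 5 μM ATP for 90 min at 25 °C in HEPES pH 7.5 buffer with 10 mM MgCl2, 1% DMSO, then stopped with EDTA. Substrate and product were separated by microfluidic mobility shift, and IC50 was taken from a 4-parameter fit of normalised inhibition.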

[1] = system: FL-HCC (LI5132) PDX tumors; assay: Efficacy study in FL-HCC (LI5132) patient-derived xenograft (PDX) model; format: in vivo; conditions: oral delivery; compound 144: 30 mg/kg PO QDX34; FIG. 3
Excerpt: Efficacy: To establish the PDX model, 72 mice were inoculated with patient tumor cells to yield at least 36 mice with tumors of the required size. 18 of these mice were selected for the study.

PRKACA-DNAJB1 = biological target: T2, PRKACA-DNAJB1 (Homo sapiens, UniProt P17612); assay: PRKACA-DNAJB1 enzyme assay (EZ Reader 2 electrophoretic mobility shift); format: biochemical; conditions: read-out: Enz PRKACA-DNAJB1 IC50
T2 construct: DNAJB1 (fusion partner, P25685); the other entry of the earlier key: DNAJB1 (P25685, DnaJ homolog subfamily B member 1)
Method: A Perkin Elmer electrophoretic mobility shift platform (the EZ Reader 2) was used to assess the activity of test compounds against a kinase of interest. Fluorescently labeled substrate peptide was incubated in the presence of kinase, ATP, and the test compound, so that a portion of the peptide was phosphorylated by the enzyme. At the end of the reaction, the mix of phosphorylated (product) and non-phosphorylated (substrate) peptide containing solutions was passed through the microfluidic system of the Perkin Elmer EZ Reader 2 under an applied potential difference. The presence of the phosphate group on the product peptide provided a difference in mass and charge between those of the substrate peptide, resulting in a separation of the substrate and product pools in the sample. As the stopped solutions passed under the instrument's LED light the phosphorylated and un-phosphorylated fluorophore bound peptides were detected and resolved as separate peaks. The ratio between these peaks therefore reflected the test compound's impact on the kinase at that concentration in that well under those conditions.

[2] = system: PKA (phosphorylation of VASP on Serine 157); assay: Cellular potency assay: P-VASP(157) HTRF in Forskolin-stimulated Huh7 cells; format: cell-based; conditions: Homo sapiens, Huh-7, 4 hours compound, 5 μM Forskolin 30 minutes, read-out: Phos VASP(S157) IC50
In short: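 Huh7 cells in serum-free DMEM were pretreated with compound for 4 h at 37 °C (0.24% DMSO final), then stimulated with 5 μM forskolin for 30 min. Lysates were assayed for phospho-VASP Ser157 by HTRF sandwich immunoassay, read at 665/620 nm.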

For `Cc1c[nH]c2nccc(-c3ccc(C(=O)N[C@@H]4c5c(F)cc(C(F)F)cc5C[C@@H]4O)cn3)c12` [Compound 162, N-[(1R,2S)-5-(Difluoromethyl)-7-fluoro-2-hydroxy-2,3-dihydro-1H-inden-1-yl]-6-{3-methyl-1H-pyrrolo[2,3-b]pyridin-4-yl}pyridine-3-carboxamide], the IC50 (PRKACA) was ≤ 1 nM, the “FLC tumor growth inhibition” value [1] was “significant FLC tumor growth inhibition” and the “tolerability of the dose” value [1] was “tolerated”. The IC50 (PRKACA-DNAJB1) was ≤ 1 nM and the IC50 [2] was < 50 nM.
